Measured values from patent US10597388B2, “Pyridazinone herbicides” (FMC CORPORATION, priority 2014, dated 2020).

How the values were obtained:
Type in all cases: in vivo
[1] = test system: nutsedge, yellow (yellow nutsedge, Cyperus esculentus); assay: Test C greenhouse herbicide test, pre- and postemergence
Procedure, shortened: (§1)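 Two application timings: at sowing into a soil/sand blend, and on 2–18 cm seedlings in peat-vermiculite potting mix. A non-phytotoxic, surfactant-containing solvent carried the compounds. Plants were compared with controls and rated visually on 0–100 after 13–15 d.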

[2] = test system: wheat (winter wheat, Triticum aestivum); assay: as above
Procedure, shortened: as §1

[3] = test system: galium (catchweed bedstraw, Galium aparine); assay: as above
Procedure, shortened: as §1

[4] = test system: barnyardgrass (Echinochloa crus-galli); assay: as above
Procedure, shortened: as §1

[5] = test system: pigweed (Amaranthus retroflexus); assay: Test A greenhouse herbicide test, pre- and postemergence
Procedure, shortened: (§2)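 Seeds sown in loam–sand blend got a preemergence directed soil spray of compound in non-phytotoxic solvent with surfactant. Postemergence treatment was given at 2–10 cm, one- to two-leaf stage. After ~10 d in greenhouse, injury was rated visually vs untreated controls, 0 (no effect) to 100 (complete control).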

corn (Zea mays) = assay: as above; conditions: Postemergence; for Plant response rating, Corn: 125 g ai/ha, 0 to 100 scale where 0 is no effect and 100 is complete control; for Corn plant response rating: 500 g ai/ha, 0 to 100 scale, 0 is no effect, 100 is complete control
Procedure, shortened: as §2

[6] = test system: ragweed (common ragweed, Ambrosia elatior); assay: as above
Procedure, shortened: as §2

[7] = test system: foxtail, giant (giant foxtail, Setaria faberii); assay: as above
Procedure, shortened: as §2

[8] = test system: barnyardgrass (Echinochloa crus-galli); assay: as above
Procedure, shortened: as §2

[9] = test system: blackgrass (Alopecurus myosuroides); assay: Test A greenhouse herbicide test, postemergence; conditions: for Plant response rating, Blackgrass: 125 g ai/ha, 0 to 100 scale where 0 is no effect and 100 is complete control; for Blackgrass plant response rating: 500 g ai/ha, 0 to 100 scale, 0 is no effect, 100 is complete control
Procedure, shortened: (§3)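 Greenhouse postemergence test: formulated chemicals sprayed on one- to two-leaf plants (2 to 10 cm), grown in loam soil blended with sand. Injury assessed visually about 10 d later against untreated controls, scored 0 (no effect) to 100 (complete control).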

[10] = test system: galium (catchweed bedstraw, Galium aparine); assay: Test A greenhouse herbicide test, postemergence; conditions: for Plant response rating, Galium: 125 g ai/ha, 0 to 100 scale where 0 is no effect and 100 is complete control; for Galium plant response rating: 500 g ai/ha, 0 to 100 scale, 0 is no effect, 100 is complete control
Procedure, shortened: as §3

[11] = Postemergence, 31 g ai/ha, 0 to 100 scale (0 no effect, 100 complete control)
[12] = Postemergence, 125 g ai/ha, scale 0 to 100, 0 is no effect, 100 is complete control
[13] = Postemergence, 250 g ai/ha, scale 0 to 100, 0 no effect, 100 complete control, 13 to 15 d
[14] = postemergence, 62 g ai/ha, scale 0 to 100, 0 no effect, 100 complete control
[15] = Postemergence, 125 g ai/ha, 0 to 100 scale where 0 is no effect and 100 is complete control
[16] = Postemergence, 500 g ai/ha, 0 to 100 scale, 0 is no effect, 100 is complete control
[17] = Preemergence, 125 g ai/ha, 0 to 100 scale where 0 is no effect and 100 is complete control
[18] = Preemergence, 500 g ai/ha, 0 to 100 scale, 0 no effect, 100 complete control
[19] = Preemergence, 31 g ai/ha, scale 0 to 100, 0 is no effect, 100 is complete control
[20] = Preemergence, 62 g ai/ha, scale 0 to 100, 0 is no effect, 100 is complete control
[21] = Preemergence, 125 g ai/ha, scale 0 to 100, 0 is no effect, 100 is complete control
[22] = Preemergence, 250 g ai/ha, scale 0 to 100 (0 no effect, 100 complete control)

Cc1ccc(-c2c(O)c(Br)nn(C)c2=O)c2ccccc12 [Compound 52]
Nutsedge, Yellow plant response rating [1, 11]: 60 | Plant response rating, Nutsedge, Yellow [1, 12]: 90 | Plant response rating, Nutsedge, Yellow [1, 13]: 95 | Nutsedge, Yellow plant response rating [1, 14]: 80 | Wheat plant response rating [2, 11]: 0 | Plant response rating, Wheat [2, 12]: 0 | Plant response rating, Wheat [2, 13]: 0 | Wheat plant response rating [2, 14]: 0 | Galium plant response rating [3, 11]: 90 | Plant response rating, Galium [3, 12]: 100 | Plant response rating, Galium [3, 13]: 100 | Galium plant response rating [3, 14]: 100 | Barnyardgrass plant response rating [4, 11]: 5 | Plant response rating, Barnyardgrass [4, 12]: 5 | Plant response rating, Barnyardgrass [4, 13]: 10 | Barnyardgrass plant response rating [4, 14]: 5 | Plant response rating, Pigweed [5, 15]: 10 | Pigweed plant response rating [5, 16]: 30 | Pigweed plant response rating [5, 17]: 10 | Plant response rating, Pigweed [5, 18]: 60 | Plant response rating, Corn (corn (Zea mays)): 0 | Corn plant response rating (corn (Zea mays)): 20 | Plant response rating, Ragweed [6, 15]: 90 | Ragweed plant response rating [6, 16]: 100 | Ragweed plant response rating [6, 17]: 20 | Plant response rating, Ragweed [6, 18]: 80 | Plant response rating, Foxtail, Giant [7, 15]: 40 | Foxtail, Giant plant response rating [7, 16]: 50 | Foxtail, Giant plant response rating [7, 17]: 40 | Plant response rating, Foxtail, Giant [7, 18]: 60 | Plant response rating, Barnyardgrass [8, 15]: 10 | Barnyardgrass plant response rating [8, 16]: 50 | Barnyardgrass plant response rating [8, 17]: 50 | Plant response rating, Barnyardgrass [8, 18]: 70 | Plant response rating, Blackgrass [9]: 20 | Blackgrass plant response rating [9]: 30 | Plant response rating, Galium [10]: 100 | Galium plant response rating [10]: 100

COc1nn(C)c(=O)c(-c2c(C)ccc3ccccc23)c1O [Compound 54]
Nutsedge, Yellow plant response rating [1, 11]: 10 | Plant response rating, Nutsedge, Yellow [1, 12]: 55 | Plant response rating, Nutsedge, Yellow [1, 13]: 70 | Plant response rating, Nutsedge, Yellow [1, 19]: 5 | Plant response rating, Nutsedge, Yellow [1, 20]: 5 | Plant response rating, Nutsedge, Yellow [1, 21]: 25 | Nutsedge, Yellow plant response rating [1, 22]: 70 | Nutsedge, Yellow plant response rating [1, 14]: 35 | Wheat plant response rating [2, 11]: 0 | Plant response rating, Wheat [2, 12]: 0 | Plant response rating, Wheat [2, 13]: 0 | Plant response rating, Wheat [2, 19]: 0 | Plant response rating, Wheat [2, 20]: 0 | Plant response rating, Wheat [2, 21]: 0 | Wheat plant response rating [2, 22]: 0 | Wheat plant response rating [2, 14]: 50 | Galium plant response rating [3, 11]: 95 | Plant response rating, Galium [3, 12]: 98 | Plant response rating, Galium [3, 13]: 98 | Plant response rating, Galium [3, 19]: 95 | Plant response rating, Galium [3, 20]: 95 | Plant response rating, Galium [3, 21]: 100 | Galium plant response rating [3, 22]: 100 | Galium plant response rating [3, 14]: 98 | Barnyardgrass plant response rating [4, 11]: 15 | Plant response rating, Barnyardgrass [4, 12]: 55 | Plant response rating, Barnyardgrass [4, 13]: 20 | Plant response rating, Barnyardgrass [4, 19]: 15 | Plant response rating, Barnyardgrass [4, 20]: 35 | Plant response rating, Barnyardgrass [4, 21]: 65 | Barnyardgrass plant response rating [4, 22]: 85 | Barnyardgrass plant response rating [4, 14]: 30 | Plant response rating, Pigweed [5, 15]: 90 | Pigweed plant response rating [5, 16]: 100 | Pigweed plant response rating [5, 17]: 100 | Plant response rating, Pigweed [5, 18]: 100 | Plant response rating, Corn (corn (Zea mays)): 20 | Corn plant response rating (corn (Zea mays)): 30 | Plant response rating, Ragweed [6, 15]: 100 | Ragweed plant response rating [6, 16]: 100 | Ragweed plant response rating [6, 17]: 90 | Plant response rating, Ragweed [6, 18]: 100 | Plant response rating, Foxtail, Giant [7, 15]: 60 | Foxtail, Giant plant response rating [7, 16]: 90 | Foxtail, Giant plant response rating [7, 17]: 60 | Plant response rating, Foxtail, Giant [7, 18]: 100 | Plant response rating, Barnyardgrass [8, 15]: 30 | Barnyardgrass plant response rating [8, 16]: 90 | Barnyardgrass plant response rating [8, 17]: 40 | Plant response rating, Barnyardgrass [8, 18]: 90 | Plant response rating, Blackgrass [9]: 20 | Blackgrass plant response rating [9]: 40 | Plant response rating, Galium [10]: 100 | Galium plant response rating [10]: 100

Cc1ccc2ccccc2c1-c1c(O)cnn(C)c1=O [Compound 56]
Nutsedge, Yellow plant response rating [1, 11]: 0 | Plant response rating, Nutsedge, Yellow [1, 12]: 50 | Plant response rating, Nutsedge, Yellow [1, 13]: 60 | Nutsedge, Yellow plant response rating [1, 14]: 5 | Wheat plant response rating [2, 11]: 0 | Plant response rating, Wheat [2, 12]: 5 | Plant response rating, Wheat [2, 13]: 5 | Wheat plant response rating [2, 14]: 0 | Galium plant response rating [3, 11]: 80 | Plant response rating, Galium [3, 12]: 90 | Plant response rating, Galium [3, 13]: 90 | Galium plant response rating [3, 14]: 85 | Barnyardgrass plant response rating [4, 11]: 0 | Plant response rating, Barnyardgrass [4, 12]: 5 | Plant response rating, Barnyardgrass [4, 13]: 10 | Barnyardgrass plant response rating [4, 14]: 5 | Plant response rating, Pigweed [5, 15]: 80 | Pigweed plant response rating [5, 16]: 90 | Pigweed plant response rating [5, 17]: 60 | Plant response rating, Pigweed [5, 18]: 100 | Plant response rating, Corn (corn (Zea mays)): 0 | Corn plant response rating (corn (Zea mays)): 10 | Plant response rating, Ragweed [6, 15]: 70 | Ragweed plant response rating [6, 16]: 90 | Ragweed plant response rating [6, 17]: 80 | Plant response rating, Ragweed [6, 18]: 90 | Plant response rating, Foxtail, Giant [7, 15]: 20 | Foxtail, Giant plant response rating [7, 16]: 60 | Foxtail, Giant plant response rating [7, 17]: 30 | Plant response rating, Foxtail, Giant [7, 18]: 70 | Plant response rating, Barnyardgrass [8, 15]: 10 | Barnyardgrass plant response rating [8, 16]: 60 | Barnyardgrass plant response rating [8, 17]: 10 | Plant response rating, Barnyardgrass [8, 18]: 50 | Plant response rating, Blackgrass [9]: 30 | Blackgrass plant response rating [9]: 50 | Plant response rating, Galium [10]: 90 | Galium plant response rating [10]: 100

Cc1ccc2ccccc2c1-c1c(O)c(C)nn(C)c1=O [Compound 59]
Nutsedge, Yellow plant response rating [1, 11]: 65 | Plant response rating, Nutsedge, Yellow [1, 12]: 95 | Plant response rating, Nutsedge, Yellow [1, 13]: 95 | Plant response rating, Nutsedge, Yellow [1, 19]: 80 | Plant response rating, Nutsedge, Yellow [1, 20]: 80 | Plant response rating, Nutsedge, Yellow [1, 21]: 85 | Nutsedge, Yellow plant response rating [1, 22]: 90 | Nutsedge, Yellow plant response rating [1, 14]: 85 | Wheat plant response rating [2, 11]: 0 | Plant response rating, Wheat [2, 12]: 10 | Plant response rating, Wheat [2, 13]: 15 | Plant response rating, Wheat [2, 19]: 60 | Plant response rating, Wheat [2, 20]: 60 | Plant response rating, Wheat [2, 21]: 75 | Wheat plant response rating [2, 22]: 85 | Wheat plant response rating [2, 14]: 20 | Galium plant response rating [3, 11]: 95 | Plant response rating, Galium [3, 12]: 98 | Plant response rating, Galium [3, 13]: 98 | Plant response rating, Galium [3, 19]: 98 | Plant response rating, Galium [3, 20]: 95 | Plant response rating, Galium [3, 21]: 98 | Galium plant response rating [3, 22]: 98 | Galium plant response rating [3, 14]: 98 | Barnyardgrass plant response rating [4, 11]: 20 | Plant response rating, Barnyardgrass [4, 12]: 55 | Plant response rating, Barnyardgrass [4, 13]: 70 | Plant response rating, Barnyardgrass [4, 19]: 30 | Plant response rating, Barnyardgrass [4, 20]: 70 | Plant response rating, Barnyardgrass [4, 21]: 90 | Barnyardgrass plant response rating [4, 22]: 95 | Barnyardgrass plant response rating [4, 14]: 30 | Plant response rating, Pigweed [5, 15]: 100 | Pigweed plant response rating [5, 16]: 100 | Pigweed plant response rating [5, 17]: 100 | Plant response rating, Pigweed [5, 18]: 100 | Plant response rating, Corn (corn (Zea mays)): 20 | Corn plant response rating (corn (Zea mays)): 60 | Plant response rating, Ragweed [6, 15]: 90 | Ragweed plant response rating [6, 16]: 100 | Ragweed plant response rating [6, 17]: 90 | Plant response rating, Ragweed [6, 18]: 100 | Plant response rating, Foxtail, Giant [7, 15]: 90 | Foxtail, Giant plant response rating [7, 16]: 100 | Foxtail, Giant plant response rating [7, 17]: 90 | Plant response rating, Foxtail, Giant [7, 18]: 100 | Plant response rating, Barnyardgrass [8, 15]: 80 | Barnyardgrass plant response rating [8, 16]: 90 | Barnyardgrass plant response rating [8, 17]: 80 | Plant response rating, Barnyardgrass [8, 18]: 100 | Plant response rating, Blackgrass [9]: 90 | Blackgrass plant response rating [9]: 100 | Plant response rating, Galium [10]: 100 | Galium plant response rating [10]: 100
